Source: PubChem BioAssay (NCI)
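Five compound concentrations were applied to cells in 96-well plates for 48 hours; endpoints were derived by simple linear interpolation of the resulting dose-response curve. The concentration for full growth arrest is given as TGI.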

Legend:
Experiment in all cases: DTP human tumour cell line panel, 48 h
UACC-62 melanoma = test system: UACC-62 melanoma
CAKI-1 renal = test system: CAKI-1 renal
SK-MEL-28 melanoma = test system: SK-MEL-28 melanoma
SNB-75 CNS = test system: SNB-75 CNS
HCC-2998 colon = test system: HCC-2998 colon
SK-MEL-5 melanoma = test system: SK-MEL-5 melanoma
HOP-62 NSCLC = test system: HOP-62 NSCLC
MOLT-4 leukemia = test system: MOLT-4 leukemia
HT29 colon = test system: HT29 colon
SNB-19 CNS = test system: SNB-19 CNS
SF-295 CNS = test system: SF-295 CNS
BT-549 breast = test system: BT-549 breast
SW-620 colon = test system: SW-620 colon
HOP-92 NSCLC = test system: HOP-92 NSCLC
NCI-H522 lung = test system: NCI-H522 lung
OVCAR-3 ovarian = test system: OVCAR-3 ovarian

SMILES	TGI (UACC-62 melanoma) [µM]	TGI (CAKI-1 renal) [µM]	TGI (SK-MEL-28 melanoma) [µM]	TGI (SNB-75 CNS) [µM]	TGI (HCC-2998 colon) [µM]	TGI (SK-MEL-5 melanoma) [µM]	TGI (HOP-62 NSCLC) [µM]	TGI (MOLT-4 leukemia) [µM]	TGI (HT29 colon) [µM]	TGI (SNB-19 CNS) [µM]	TGI (SF-295 CNS) [µM]	TGI (BT-549 breast) [µM]	TGI (SW-620 colon) [µM]	TGI (HOP-92 NSCLC) [µM]	TGI (NCI-H522 lung) [µM]	TGI (OVCAR-3 ovarian) [µM]
CC1=NN(c2nc(N)nc(CSc3nc4n(c(=S)n3)CCN4)n2)C(C)(C)C1	> 100	61.2	> 100	39.7	> 100	> 100	27.9	> 100	> 100	> 100	74	> 100	> 100	44.3	–	–
CN1CNc2nc(N)n(C)c(=O)c2C1	> 10	–	–	> 10	> 10	–	–	> 10	> 10	> 10	> 10	> 10	–	> 10	> 10	> 10
O=S(=O)(O)C(=Nc1cccc(Cc2ccccc2)c1)Nc1cccc(Cc2ccccc2)c1	30.9	> 100	38.8	30.6	35.5	32.4	> 100	83.4	34.5	48.5	34.3	33.4	52.1	28.6	29.4	–
CC(C)OCC1CC(CC(=O)Nc2nncs2)C(=O)O1 (stereo not drawn)	> 100	> 100	> 100	> 100	> 100	> 100	> 100	> 100	> 100	> 100	> 100	> 100	> 100	> 100	–	> 100
COC(=O)C1CN=CN1CCc1ccccc1 (stereo not drawn)	> 100	> 100	> 100	> 100	> 100	> 100	–	> 100	> 100	> 100	> 100	> 100	> 100	> 100	> 100	> 100
O=C1NC(=S)N/C1=C\c1ccc(Br)s1	> 100	> 100	> 100	–	> 100	> 100	> 100	> 100	> 100	> 100	> 100	> 100	> 100	> 100	> 100	> 100
CCCCCCCCCCCCCCCCOCC(CC(F)(F)P(=O)(OCC)OCC)OC(C)=O (stereo not drawn)	30.2	30.3	32.4	32.9	22.6	36.2	–	> 100	35.5	15.8	24.4	28.8	29.7	23.1	31.2	31.4
COC(=O)CNS(=O)(=O)c1ccc(-c2c3nc(c(-c4ccc(S(=O)(=O)NCC(=O)OC)cc4)c4ccc([nH]4)c(-c4ccc(S(=O)(=O)NCC(=O)OC)cc4)c4nc(c(-c5ccc(S(=O)(=O)NCC(=O)OC)cc5)c5ccc2[nH]5)C=C4)C=C3)cc1	> 100	> 100	> 100	> 100	> 100	> 100	> 100	> 100	> 100	> 100	> 100	> 100	> 100	–	> 100	> 100
CNc1ccc2c(c1)[C@@]1(C)c3ccccc3[C@@H](C2)N1C	35.7	> 100	–	–	44.5	32	> 100	47.6	64.8	> 100	> 100	35.9	> 100	74.4	37.7	50.5
O=c1ccn([C@@H]2C[C@@H]2CO)c(=O)[nH]1	> 100	> 100	> 100	> 100	> 100	> 100	> 100	–	> 100	> 100	–	> 100	> 100	> 100	> 100	–
CCn1c(SCC(=O)NNC(=S)Nc2ccc([N+](=O)[O-])cc2)nc2ccccc2c1=O	> 100	> 100	> 100	> 100	> 100	> 100	> 100	65.8	–	> 100	> 100	> 100	> 100	–	> 100	> 100
N#Cc1c(-c2ccc([N+](=O)[O-])cc2)c(C#N)c(=O)n(NS(=O)(=O)c2ccccc2)c1-c1ccccc1	> 100	> 100	> 100	> 100	> 100	> 100	> 100	> 100	> 100	> 100	> 100	> 100	> 100	> 100	> 100	–
COc1cc2c(cc1OCCCCN1C(=O)c3cccc4cccc(c34)C1=O)N=C[C@@H]1CCCN1C2=O	39.9	10.1	38.2	–	20.5	4.42	33.6	> 100	18.8	> 52.3	45.8	28.7	> 38.8	> 45.8	4.59	10.4
N#CC(=C1CCN(CCCC(=O)c2ccc(F)cc2)CC1)c1ccccc1	> 100	> 100	> 100	> 100	> 100	> 100	–	> 100	> 100	> 100	> 100	> 100	> 100	> 100	95.2	–
CC1=NN(c2cccc(Cl)c2)C2(SCC(=O)N2c2nc3ccccc3s2)/C1=C\c1cccs1 (stereo not drawn)	–	99	85.6	47.9	37.1	36.7	> 100	30.4	46.6	–	78.3	37.1	> 100	53.6	61.8	86.8
C=CCC1(OC(C)=O)C2OC(=O)C1(O)OCC2O (stereo not drawn)	> 100	> 100	> 100	98.9	> 100	> 100	> 100	> 100	> 100	> 100	> 100	> 100	> 100	–	> 100	> 100

SMILES	TGI (UACC-62 melanoma) [µM]	TGI (CAKI-1 renal) [µM]	TGI (SK-MEL-28 melanoma) [µM]	TGI (SNB-75 CNS) [µM]	TGI (HCC-2998 colon) [µM]	TGI (SK-MEL-5 melanoma) [µM]	TGI (HOP-62 NSCLC) [µM]	TGI (MOLT-4 leukemia) [µM]	TGI (HT29 colon) [µM]	TGI (SNB-19 CNS) [µM]	TGI (SF-295 CNS) [µM]	TGI (BT-549 breast) [µM]	TGI (SW-620 colon) [µM]	TGI (HOP-92 NSCLC) [µM]	TGI (NCI-H522 lung) [µM]	TGI (OVCAR-3 ovarian) [µM]
CC(=O)O[C@H]1[C@@H]2OC(=O)[C@@](O)(CC3CCCO3)[C@@H]2CC(=O)[C@](C)(O)CC/C=C(\C)CCC[C@@H]1C (stereo partly drawn)	> 100	44.5	44.5	> 100	> 100	> 100	–	–	–	> 100	> 100	70.4	49.2	87.7	72.4	> 100
CCCN(CCCc1ccccc1)CCc1ccc2[nH]c(=S)[nH]c2c1	74.4	> 100	51.5	68.3	26	–	> 100	54	–	91.7	26	> 100	> 100	42.6	–	> 100
O=C(CCCN1CCC2(CC1)CC(=O)N(N1CCCCCC1)C2=O)c1ccccc1	> 100	> 100	> 100	> 100	–	> 100	> 100	> 100	> 100	> 100	> 100	> 100	–	> 100	> 100	> 100
COc1cc(CO)c(CC(=O)NCCCc2ccccc2)cc1OC	> 100	> 100	> 100	> 100	> 100	> 100	> 100	> 100	> 100	> 100	–	> 100	> 100	> 100	–	> 100
S=C1N(/N=C/c2c3ccccc3cc3ccccc23)C(=Nc2ccccc2)C(=Nc2ccccc2)N1c1ccccc1	> 100	> 100	> 100	–	> 100	> 100	> 100	> 100	> 100	> 100	> 100	> 100	> 100	> 100	> 100	> 100
CC[C@@H]1CC[C@@H]2[C@H](CC[C@]3(C)[C@@H](OS(=O)(=O)c4ccc(C)cc4)CC[C@@H]23)[C@H]1COS(=O)(=O)c1ccc(C)cc1	–	–	> 100	–	> 100	> 100	–	> 100	> 100	> 100	> 100	> 100	> 100	> 100	–	–
COc1cc2c(cc1OC)C(=O)/C(=C/c1ccc(Cl)cc1)CC2	> 10	> 10	> 10	–	> 10	> 10	> 10	> 10	> 10	> 10	> 10	> 10	> 10	> 10	–	> 10
CCCCCCC(=O)O[C@H]1CC[C@H]2[C@@H]3CCC4C/C(=N/NC(=O)c5cccc6c(=O)c7ccccc7[nH]c56)C=C(C)[C@]4(C)[C@H]3CC[C@]12C (stereo partly drawn)	> 25	> 25	–	> 25	> 25	> 25	> 25	> 25	> 25	> 25	> 25	> 25	> 25	> 25	–	> 25
CC(C)(C)c1cc(C2=NNC(c3ccccc3)C2)cc(C(C)(C)C)c1O (stereo not drawn)	28	28.2	31.5	25.3	–	23	33.3	> 100	50.3	36.4	37.7	32	34.3	31.2	28.4	14.6
Cc1ccc(NC2=CC(=O)C(NO)c3ccccc32)cc1 (stereo not drawn)	4	6.73	29.5	22.2	25.8	2.92	14.6	6.23	17.1	11.5	15.4	26.4	> 100	8.25	–	5.57
Cc1nn(C(=O)Cc2ccccc2)c2c1C(c1ccc(O)cc1O)SC(N)=N2 (stereo not drawn)	> 100	> 100	> 100	> 100	> 100	> 100	> 100	> 100	> 100	> 100	> 100	> 100	> 100	–	> 100	–
COc1ccc(CC(=O)N2CCC3(C)CC(=O)CC=C23)cc1OC (stereo not drawn)	> 100	> 100	> 100	–	–	> 100	> 100	> 100	> 100	> 100	> 100	> 100	> 100	> 100	> 100	> 100
CCOC(=O)c1c(N)sc2c1C(C)(C(=O)OCC)CC2 (stereo not drawn)	> 100	–	> 100	> 100	> 100	> 100	> 100	> 100	> 100	> 100	–	> 100	> 100	> 100	–	–
CN(C)CCCNc1ccc([N+](=O)[O-])c2nc3ccccc3c(N)c12	> 10	> 10	> 10	–	–	2.44	> 10	3.42	1.72	3.23	1.53	4.75	1.63	5.08	–	5.05
COc1ccc(CNC(=O)NCn2cc(-c3ccccc3)nn2)cc1	–	> 100	> 100	> 100	> 100	> 100	> 100	> 100	> 100	> 100	> 100	> 100	> 100	> 100	> 100	–
